The source of these data is patent publication US20200131669A1, “CYCLIC PEPTIDE COMPOUND HAVING HIGH MEMBRANE PERMEABILITY, AND LIBRARY CONTAINING SAME” (Chugai Seiyaku Kabushiki Kaisha, priority 2017, published 2020).

Starred links: 1 amine or outer side, 2 acyl side, 3 side chain; linkers in the order of their positions; H or OH if unused. Positions of bridges follow the written chain, without caps; N, C: chain ends. Non-standard residues stand in square brackets, D forms with d. Residues, ends and D or L forms follow the SMILES beside them. *: point of attachment. X10 = O=C([C@H]1C[C@@H](N2CCC(F)(F)CC2)CN1[*:1])[*:2]; X13 = O=C([C@@H]1C[C@H](N2CCC(F)(F)CC2)CN1[*:1])[*:2]; X1 = CC(CC(=O)[*:2])C(=O)[C@@H](N[*:1])[C@@H](C)O; NMeAla(4-thiazolyl) = CN[C@@H](Cc1cscn1)C(=O)O; NMePhe(3-Cl) = CN[C@@H](Cc1cccc(Cl)c1)C(=O)O; X8 = O=C(CN(CCN1CCC(F)(F)CC1)[*:1])[*:2]; X3 = O=C([C@H](CCCCO)N[*:1])[*:2]; NMeF = CN[C@@H](Cc1ccccc1)C(=O)O; NMeGABA = CN(CCCC(=O)[*:2])[*:1]; NMeI = CC[C@H](C)[C@H](NC)C(=O)O; NMeD = CN[C@@H](CC(=O)O)C(=O)O; NMeL = CN[C@@H](CC(C)C)C(=O)O; NMeV = CN[C@H](C(=O)O)C(C)C; hSer = N[C@@H](CCO)C(=O)O; Piperidide = C1CCN(*)CC1; dAbu = CC[C@@H](N)C(=O)O; NBuGly = CCCCNCC(=O)O; Sar = CNCC(=O)O; tBu = CC(C)(C)*

The subject of the first data set is Caco-2 cells. The data set is described as follows: Caco-2 membrane permeability, improved method as used in the following Examples (96-well, 20 to 24 h preincubation). As to conditions: Caco-2. It is filed as in vitro ADME. A digest of the protocol: (§1)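 Papp (cm/sec) was derived from LC/MS of basal samples collected 180 min after apical dosing in FaSSIF/HBSS pH 6.0 with 1% DMSO, against a basal HBSS pH 7.4 receiver containing 4% BSA. Three-week Caco-2 cultures were first preincubated with compound in DMEM+FaSSIF at 37 °C for 20–24 h.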
For orientation: Caco-2 cells form a polarised layer with tight junctions and transporters.
`CC(C)C[C@H]1C(=O)N[C@@H]([C@@H](C)O)C(=O)C(C)CC(=O)N(C)[C@@H](C(C)C)C(=O)N[C@@H](Cc2ccccc2)C(=O)N(C)[C@@H](Cc2cccc(Cl)c2)C(=O)N(C)[C@@H](CC(C)C)C(=O)N(C)[C@H](C(=O)N2CCCCC2)CC(=O)N2CCC[C@H]2C(=O)N[C@@H](Cc2ccccc2)C(=O)N[C@@H](COC(C)(C)C)C(=O)N1C` (stereo partly shown) [pd162] (PFS(tBu)[NMeL][X1][NMeV]F[NMePhe(3-Cl)][NMeL][NMeD]-Piperidide; lactam N-10): the “Caco-2” value was determined as 1.2e-06 cm/s.

Turning to `CC(C)C[C@H]1C(=O)N[C@@H]([C@@H](C)O)C(=O)N(C)CC(=O)N(C)[C@@H](C(C)C)C(=O)N[C@@H](Cc2ccccc2)C(=O)N(C)[C@@H](Cc2cccc(Cl)c2)C(=O)N(C)[C@@H](CC(C)C)C(=O)N(C)[C@H](C(=O)N2CCCCC2)CC(=O)N2CCC[C@@H]2C(=O)N[C@@H](Cc2ccccc2)C(=O)N[C@@H](COC(C)(C)C)C(=O)N1C` [pd163] ([dP]FS(tBu)[NMeL]T[Sar][NMeV]F[NMePhe(3-Cl)][NMeL][NMeD]-Piperidide; lactam N-11), the “Caco-2” value was 1.7e-06 cm/s.

Still in this data set, the particulars now being: Papp, Caco-2 membrane permeability, improved method.
`CC(C)C[C@H]1C(=O)N[C@@H](CCCCO)C(=O)N(C)[C@@H](CC(C)C)C(=O)N(C)[C@@H](CC(C)C)C(=O)N[C@H](C(=O)N2CCCCC2)CC(=O)N(C)CCCC(=O)N(C)[C@@H](C(C)C)C(=O)N[C@@H](C(C)C)C(=O)N(C)[C@@H](Cc2ccccc2)C(=O)N(C)[C@@H](Cc2ccccc2)C(=O)N[C@@H](COC(C)(C)C)C(=O)N1C` [pd447] ([NMeGABA][NMeV]V[NMeF][NMeF]S(tBu)[NMeL][X3][NMeL][NMeL]D-Piperidide; lactam N-11) showed a Caco-2 of 1.1e-06 cm/s.

Still in this data set, the particulars now being: human, Caco-2, 180 min.
Consider `CCCCN1CC(=O)N(C)[C@@H](Cc2ccccc2)C(=O)N(C)[C@@H](CC(C)C)C(=O)N[C@@H](CC(C)C)C(=O)N(C)[C@@H](CC(C)C)C(=O)N[C@H](C(=O)N2CCCCC2)CC(=O)N(C)CC(=O)N(C)[C@@H](Cc2ccccc2)C(=O)N[C@@H](CCOCC)C(=O)N(C)[C@@H](CC(C)C)C(=O)N[C@@H]([C@@H](C)O)C1=O` [pd445] ([Sar][NMeF][hSer](Et)[NMeL]T[NBuGly][NMeF][NMeL]L[NMeL]D-Piperidide; lactam N-11), for which the Caco-2 came out at 1.1e-06 cm/s.

As to `CC(C)C[C@H]1C(=O)N[C@H](C(=O)N2CCCCC2)CC(=O)N(C)CC(=O)N(C)[C@@H](Cc2ccccc2)C(=O)N[C@@H](C(C)C)C(=O)N(C)[C@@H](CC(C)C)C(=O)N[C@@H]([C@@H](C)O)C(=O)N(CCN2CCC(F)(F)CC2)CC(=O)N(C)[C@@H](Cc2ccccc2)C(=O)N(C)[C@@H](CC(C)C)C(=O)N[C@@H](COC(C)(C)C)C(=O)N1C` [pd455] ([Sar][NMeF]V[NMeL]T[X8][NMeF][NMeL]S(tBu)[NMeL]D-Piperidide; lactam N-11), the Caco-2 amounted to 1.1e-06 cm/s. In the case of `CC(C)C[C@H]1C(=O)N[C@H](C(=O)N2CCCCC2)CC(=O)N[C@H](C)C(=O)N2C[C@H](N3CCC(F)(F)CC3)C[C@@H]2C(=O)N[C@@H](COC(C)(C)C)C(=O)N(C)[C@@H](CC(C)C)C(=O)N(C)[C@@H](CC(C)C)C(=O)N(C)[C@@H](CC(C)C)C(=O)N[C@@H]([C@@H](C)O)C(=O)N(C)[C@@H](Cc2ccccc2)C(=O)N[C@@H](Cc2ccccc2)C(=O)N1C` [pd457] ([dA][X10]S(tBu)[NMeL][NMeL][NMeL]T[NMeF]F[NMeL]D-Piperidide; lactam N-11), the Caco-2 stood at 1.1e-06 cm/s. Consider `CC[C@H]1NC(=O)C[C@@H](C(=O)N2CCCCC2)NC(=O)[C@H](CC(C)C)N(C)C(=O)[C@H](Cc2ccccc2)NC(=O)[C@@H]2C[C@H](N3CCC(F)(F)CC3)CN2C(=O)[C@H]([C@@H](C)O)NC(=O)[C@H](CC(C)C)N(C)C(=O)[C@H](CC(C)C)NC(=O)[C@H](CC(C)C)N(C)C(=O)[C@H](COC(C)(C)C)NC(=O)[C@H](CC(C)C)N(C)C1=O` [pd462] ([dAbu][NMeL]S(tBu)[NMeL]L[NMeL]T[X13]F[NMeL]D-Piperidide; lactam N-11), for which the Caco-2 came to 1.1e-06 cm/s. Compound `CCCCN1CC(=O)N(C)[C@@H](CC(C)C)C(=O)N[C@H](C(=O)N2CCCCC2)CC(=O)N(C)[C@@H](CC(C)C)C(=O)N[C@@H](CC(C)C)C(=O)N(C)[C@@H](CC(C)C)C(=O)N(C)[C@@H](Cc2cscn2)C(=O)N[C@@H](CC(C)C)C(=O)N(C)[C@@H](Cc2ccccc2)C(=O)N(C)[C@@H]([C@@H](C)CC)C(=O)N[C@@H](CCC(=O)NC)C1=O` [pd465] ([NMeL]L[NMeL][NMeAla(4-thiazolyl)]L[NMeF][NMeI]E(NHMe)[NBuGly][NMeL]D-Piperidide; lactam N-11) gave a Caco-2 of 1.1e-06 cm/s.

Test system in the next data set: not listed separately
The data set is described as above. It is filed as in vitro ADME. As to conditions: human, Caco-2, Caco-2 (cm/sec). In short, it runs like this:
as §1
The term Papp A→B denotes how fast a substance crosses the layer from the apical side. A lower Papp A→B goes with poor permeation. In turn, `CC(C)C[C@H]1C(=O)N[C@@H]([C@@H](C)O)C(=O)C(C)CC(=O)N(C)[C@@H](C(C)C)C(=O)N[C@@H](Cc2ccccc2)C(=O)N(C)[C@@H](Cc2cccc(Cl)c2)C(=O)N(C)[C@@H](CC(C)C)C(=O)N(C)[C@H](C(=O)N2CCCCC2)CC(=O)N2CCC[C@H]2C(=O)N[C@@H](Cc2ccccc2)C(=O)N[C@@H](COC(C)(C)C)C(=O)N1C` (stereo partly shown) [pd162] (PFS(tBu)[NMeL][X1][NMeV]F[NMePhe(3-Cl)][NMeL][NMeD]-Piperidide; lactam N-10) gave a Papp A→B at 180 min of 1.2 ×10⁻⁶ cm/s. With `CC(C)C[C@H]1C(=O)N[C@@H]([C@@H](C)O)C(=O)N(C)CC(=O)N(C)[C@@H](C(C)C)C(=O)N[C@@H](Cc2ccccc2)C(=O)N(C)[C@@H](Cc2cccc(Cl)c2)C(=O)N(C)[C@@H](CC(C)C)C(=O)N(C)[C@H](C(=O)N2CCCCC2)CC(=O)N2CCC[C@@H]2C(=O)N[C@@H](Cc2ccccc2)C(=O)N[C@@H](COC(C)(C)C)C(=O)N1C` [pd163] ([dP]FS(tBu)[NMeL]T[Sar][NMeV]F[NMePhe(3-Cl)][NMeL][NMeD]-Piperidide; lactam N-11), the apical-to-basolateral permeability (Papp A→B) at 180 min worked out at 1.7 ×10⁻⁶ cm/s.
